Entries after “also recorded” stand apart in the source; their conditions may differ.
Assays:
[1] = system: src-transformed rat-1 fibroblasts; assay: Changes in morphology of src-transformed cells; type: cell-based; conditions: FIG. 6C/6D
Procedure: Compound 27A (denoted as BG269A in the figure) and compound 27B (denoted as BG269B in the figure) were added at 250 μM to test whether these compounds would induce reversion to a more normal phenotype as had been previously shown with microinjection of anti-Ras antibodies (see Feramisco, J. R. et al Nature 314, 639 (1985)). The H-ras transformed cells, denoted as rat 2.2 cells, were generated by transfection of rat-1 fibroblasts as described (see Seeburg, P. H., Colby, W. W., Capon, D. J., Goeddel, D. V., and Levinson, A. D. Nature 312,71 (1984)). Cells that overgrew the monolayer were extracted and plated onto agar to obtain a cell line displaying a fully transformed phenotype. Untransformed rat-1 fibroblasts and src-transformed rat-1 fibroblasts were also treated. The src-transformed cells were generated by co-transfection of rat-1 fibroblasts with pSV3.Neo.src, a vector containing the gene for src as well as the gene that confers G418 resistance, both under control of SV40 early promoters. G418-resistant cell clones that diplayed a transformed phenotype were used to generate the cell line. On day 0, cells were plated in monolayer culture at 3×10^3 cells per well (24-well plates) in 1 ml DMEM supplemented with 10% FCS, 100 U/ml penicillin, 10 μg/ml streptomycin, 2% DMSO, and 0.5 mM DTT with and without 200 μM inhibitor. On day 3, the cells were refed with the same medium. […]

CAAX GG transferase = molecular target: T1, CAAX GG transferase (Rattus norvegicus, UniProt P53610+Q04631); assay: Inhibition of CAAX GG transferase (geranylgeranyltransferase); type: biochemical
T1 construct: partially purified CAAX GG transferase; from tissue
T1 sequence (P53610 whole entry, one chain of several): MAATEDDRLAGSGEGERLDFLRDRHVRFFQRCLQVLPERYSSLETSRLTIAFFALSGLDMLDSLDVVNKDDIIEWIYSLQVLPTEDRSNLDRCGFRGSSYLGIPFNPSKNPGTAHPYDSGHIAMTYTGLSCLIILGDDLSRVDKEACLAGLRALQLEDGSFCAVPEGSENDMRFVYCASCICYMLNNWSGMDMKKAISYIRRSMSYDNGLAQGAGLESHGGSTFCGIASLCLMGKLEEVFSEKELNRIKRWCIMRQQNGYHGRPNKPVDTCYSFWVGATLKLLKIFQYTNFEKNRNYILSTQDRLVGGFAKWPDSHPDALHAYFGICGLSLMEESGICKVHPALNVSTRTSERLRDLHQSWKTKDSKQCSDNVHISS
Excerpt: FIG. 1 compares the inhibitory activity of compound 27B (denoted as BG269B in the figure) on protein prenyltransferases. […] Two other prenyltransferases, both of which transfer 20-carbon geranylgeranyl (GG) groups, have been identified in rat brain. One of thesse, CAAX GG transferase, attaches GG groups to proteins that terminate in CAAX sequences in which X is leucine.
The conditions used to assay the inhibition of CAAX farnesyltransferase are identical to those described above for the in vitro, assay described in Example 121. In FIG. 1B the assay mixture contained, in a final volume of 50 μl, 50 mM sodium Hepes (pH 7.2), 5 mM MgC12, 5 mM DTT, 0.3 mM Nonidet P-40, 0.2% octyl β-glucoside, 1% DMSO, 0.5 μM all trans [3H]geranylgeranyl pyrophosphate (33,000 dpm/pmol; ARC, Inc.), 5 μM recombinant p21^H-rasCVLL, 6.3 μg partially purified CAAX GG transferase (see Seabra, M. C., Reiss, Y., Casey, P. J., Brown, M. S., and Goldstein, J. L. Cell 268, 4055 (1993)) and varying concentrations of the indicated inhibitor. In FIG. 1C, the assay mixture contained in a final volume of 50 μl, 50 mM sodium Hepes (pH 7.2), 5 mM MgCl2, 5 mM DTT, 0.3 mM Nonidet P-40, 0.2% octyl β-D-glucoside, 1% DMSO, 0.5 μM all trans [3H]geranylgeranyl pyrophosphate (33,000 dpm/pmol; ARC, Inc.), 2 μM recombinant Rab1A, 2 ng each of purified Components A and B of Rab GG transferase (see Seabra, M. C., Goldstein, J. L., Sudhof, T. C., and Brown, M. S. J. Biol. Chem. 267, 14497 (1992)) and varying concentrations of the indicated inhibitor.
Each assay was carried out as described in Examples 121 and 122.

CALU-3 cells = assay: Growth inhibition of human tumor line CALU-3; type: cell-based; conditions: CALU-3, lung, ras transformed, read-out: % growth inhib.
Procedure: (§1) To examine the effects of farnesyltransferase inhibition on cell growth, three cell lines (ras-transformed rat-1, src-transformed rat-1, and parental rat-1 cells) were seeded (see FIG. 7) at low density and allowed to grow for 10 days in the absence or presence of increasing concentrations of BZA-5B (compound 37). See Example 128 for description of cells. On day 0, cells were plated in monolayer culture at 2×10^3 cells per well (24-well plates) in 1 ml DMEM supplemented with 10% fetal calf serum, 100 U/ml penicillin, 100 μg/ml streptomycin, 0.5 mM DTT, 0.025% DMSO, and the indicated concentration of BZA-5B (compound 37). On days 3 and 7, cells were washed and refed with the same medium. At the time indicated in FIG. 7, cells were harvested by trypsinization and counted in a Coulter counter. Panels A, C, E show the growth rate of each cell line in the absence of inhibitor. Panels B, D, F show the inhibition of growth as a function of concentration of BZA-5B at each time point. […]
(§2) To examine the effects of farnesyltransferase inhibition on the growth of human tumor cell lines, several such lines were treated with 25 μM BZA-5B (compound 37B) using a procedure similar to that described in Example 129 above. Cells were refed with fresh media at days 3 and 6 containing the inhibitor, and were harvested and counted as described above. […]

[2] = system: HT 1080 human tumor cells in nude mouse; assay: Survival of nude mice after intraperitoneal implantation of HT 1080 human tumor cells; type: in vivo; conditions: 20 mg/kg daily
Procedure: Implantation of […] HT 1080 cells in the peritoneal cavity of the nude mouse allows seeding and growth of tumor cell masses within the peritoneum. […] In this experiment, fourteen nude mice were injected on day 0 with […] HT 1080 cells via intraperitoneal injection. Half the animals (seven) immediately began receiving daily treatment with Compound 37B at 20 mg/kg (formulated in approx. 0.25 ml of 1% DMSO, 20% glycerol, 10 mM NaOAc, 130 mM NaCl, pH 4.5). The other seven animals received daily injection of the above vehicle alone.

MCF-231 cells = assay: Growth inhibition of human tumor line MCF-231; type: cell-based; conditions: MCF-231, breast (human), ras transformed, read-out: % growth inhib.
Procedure: as §1, §2

| SMILES | effect on morphology of src-transformed cells [1] | IC50 (CAAX GG transferase; FIG. 1B, p21H-rasCVLL substrate, read-out: IC0.5 CAAX GG transferase) [nM] | fold higher concentration for CAAX GG transferase than for CAAX farnesyltransferase (CAAX GG transferase; selectivity vs CAAX farnesyltransferase) | inhibition at 25 µM (CALU-3 cells) [%] | mortality / survival of mice with IP tumor ([2]; over 25 days, FIG. 8) | tumor cell masses in the peritoneum at end of treatment ([2]; dissection of all treated animals) | inhibition at 25 µM (MCF-231 cells) [%] |
| --- | --- | --- | --- | --- | --- | --- | --- |
| CSCC[C@H](NC(=O)CN1C(=O)C(N(C)C(=O)[C@@H](N)CS)N=C(c2ccccc2)c2ccccc21)C(=O)O (single isomer, unassigned) [27B] | not affected | 35 | more than 100 fold | – | – | – | – |
| COC(=O)[C@H](CCSC)NC(=O)CN1C(=O)C(N(C)C(=O)[C@@H](N)CS)N=C(c2ccccc2)c2ccccc21 (single isomer, unassigned) [37B] | – | – | – | 52 | caused a reduction in mortality over 25 days; also recorded: blocked the rapid mortality associated with IP implantation of tumor cells | all of the treated animals showed the presence of tumor cell masses in the peritoneum | 58 |

— US5843941A, “Ras farnesyl transferase inhibitors” (Genentech, Inc., priority 1994, dated 1998)
